Results: patent US8163921B2, “Hepatitis C virus inhibitors” (Bristol-Myers Squibb Company, priority 2008, dated 2012)
Read-outs that look alike come from different tables or passages of the source.

Experiments:
[1] = target: T1, HCV NS3/4A protease complex, BMS strain (UniProt P27958, C1454S/C1711G, species not given); test: FRET peptide assay to monitor HCV NS3/4A proteolytic activity (BMS strain); format: biochemical, HCV genotype 1a; settings: read-out: IC50 Range, HCV NS3/4A enzyme assay
T1 construct: other: HCV NS3/4A enzyme assay; class symbols; numeric values; fused on or other part: three-lysine solubilising tail at the C-terminus of NS4A; purified on Ni-NTA from the pET21b vector (His tag implied)
In short: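 Recombinant HCV NS3/4A protease complex (BMS strain, genotype 1a), 2-3 nM final (300 pM with 50 μg/ml BSA for very potent compounds), incubated with RET S1 EDANS/DABCYL depsipeptide substrate at 2 μM final. Buffer: 50 mM HEPES pH 7.5, 0.15 M NaCl, 0.1% Triton, 15% glycerol, 10 mM βME. Cleavage followed in real time by fluorescence.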

[2] = test system: HCV replicon in HUH-7 cells; test: HCV replicon FRET assay; format: cell-based, HCV strain 1b; settings: Hepatitis C virus
Description: An HCV replicon whole cell system was established as described by Lohmann V, Korner F, Koch J, Herian U, Theilmann L, Bartenschlager R., Science 285(5424):110-3 (1999). This system enabled us to evaluate the effects of our HCV Protease compounds on HCV RNA replication. Briefly, using the HCV strain 1b sequence described in the Lohmann paper (Assession number:AJ238799), an HCV cDNA was synthesized by Operon Technologies, Inc. (Alameda, Calif.), and the full-length replicon was then assembled in plasmid pGem9zf(+) (Promega, Madison, Wis.) using standard molecular biology techniques. The replicon consists of (i) the HCV 5′ UTR fused to the first 12 amino acids of the capsid protein, (ii) the neomycin phosphotransferase gene (neo), (iii) the IRES from encephalomyocarditis virus (EMCV), and (iv) HCV NS3 to NS5B genes and the HCV 3′ UTR. Plasmid DNAs were linearized with ScaI and RNA transcripts were synthesized in vitro using the T7 MegaScript transcription kit (Ambion, Austin, Tex.) according to manufacturer's directions. In vitro transcripts of the eDNA were transfected into the human hepatoma cell line, HUH-7. […] Resulting cell lines were characterized for positive and negative strand RNA production and protein production over time.
The HCV replicon FRET assay was developed to monitor the inhibitory effects of compounds described in the disclosure on HCV viral replication. HUH-7 cells, constitutively expressing the HCV replicon, were grown in Dulbecco's Modified Eagle Media (DMEM) (Gibco-BRL) containing 10% Fetal calf serum (FCS) (Sigma) and 1 mg/ml G418 (Gibco-BRL). Cells were seeded the night before (1.5×10^4 cells/well) in 96-well tissue-culture sterile plates. Compound and no compound controls were prepared in DMEM containing 4% FCS, 1:100 Penicillin/Streptomysin (Gibco-BRL), 1:100 L-glutamine and 5% DMSO in the dilution plate (0.5% DMSO final concentration in the assay). Compound/DMSO mixes were added to the cells and incubated for 4 days at 37° C. After 4 days, cells were first assessed for cytotoxicity using alamar Blue (Trek Diagnotstic Systems) for a CC50 reading. The toxicity of compound (CC50) was determined by adding 1/10th volume of alamar Blue to the media incubating the cells. After 4 h, the fluorescence signal from each well was read, with an excitation wavelength at 530 nm and an emission wavelength of 580 nm, using the Cytofluor Series 4000 (Perspective Biosystems). Plates were then rinsed thoroughly with Phosphate-Buffered Saline (PBS) (3 times 150 μl).

[3] = Huh-7, HCV replicon cell assay, numeric values, read-out: EC50 Range

| SMILES | IC50 ([1]; class symbols) [nM] | EC50 ([2]; Huh-7, read-out: EC50 Range) [nM] | IC50 ([1]; numeric values) [nM] | EC50 [2, 3] [nM] |
| --- | --- | --- | --- | --- |
| C=C[C@@H]1C[C@]1(NC(=O)[C@@H]1C[C@@H](Oc2ncc(OC)c3ccc(Cl)cc23)CN1C(=O)[C@@H](Nc1nc(-c2cccc(C#N)c2)cs1)C(C)(C)C)C(=O)NS(=O)(=O)C1CC1 [Example 25] | 1 to 20 | 1 to 50 | – | – |
| C=C[C@@H]1C[C@]1(NC(=O)[C@@H]1C[C@@H](Oc2ncc(OC)c3ccc(Cl)cc23)CN1C(=O)[C@@H](Nc1nc(-c2cnccn2)cs1)C(C)(C)C)C(=O)NS(=O)(=O)C1CC1 [Example 26] | 1 to 20 | 1 to 50 | – | – |
| C=C[C@@H]1C[C@]1(NC(=O)[C@@H]1C[C@@H](Oc2ncc(OC)c3ccc(Cl)cc23)CN1C(=O)[C@@H](Nc1nc(-c2ccc(Cl)c(C)c2)cs1)C(C)(C)C)C(=O)NS(=O)(=O)C1CC1 [Example 27] | – | – | 2 | 5.26 |
| C=C[C@@H]1C[C@]1(NC(=O)[C@@H]1C[C@@H](Oc2ncc(OC)c3ccc(Cl)cc23)CN1C(=O)[C@@H](Nc1nc(-c2ccc(OC)cc2OC)cs1)C(C)(C)C)C(=O)NS(=O)(=O)C1CC1 [Example 28] | 1 to 20 | 1 to 50 | – | – |
| C=C[C@@H]1C[C@]1(NC(=O)[C@@H]1C[C@@H](Oc2ncc(OC)c3ccc(Cl)cc23)CN1C(=O)[C@@H](Nc1nc(-c2ccc(Cl)c(Cl)c2)cs1)C(C)(C)C)C(=O)NS(=O)(=O)C1CC1 [Example 29] | 1 to 20 | 1 to 50 | – | – |
| C=C[C@@H]1C[C@]1(NC(=O)[C@@H]1C[C@@H](Oc2ncc(OC)c3ccc(Cl)cc23)CN1C(=O)[C@@H](Nc1nc(-c2cc(OC)ccc2OC)cs1)C(C)(C)C)C(=O)NS(=O)(=O)C1CC1 [Example 30] | 1 to 20 | 1 to 50 | – | – |
| C=C[C@@H]1C[C@]1(NC(=O)[C@@H]1C[C@@H](Oc2ncc(OC)c3ccc(Cl)cc23)CN1C(=O)[C@@H](Nc1nc(-c2ccc(Br)cc2)cs1)C(C)(C)C)C(=O)NS(=O)(=O)C1CC1 [Example 31] | 1 to 20 | 1 to 50 | – | – |
| C=C[C@@H]1C[C@]1(NC(=O)[C@@H]1C[C@@H](Oc2ncc(OC)c3ccc(Cl)cc23)CN1C(=O)[C@@H](Nc1nc(-c2ccc(F)cc2)cs1)C(C)(C)C)C(=O)NS(=O)(=O)C1CC1 [Example 32] | 1 to 20 | 1 to 50 | – | – |
| C=C[C@@H]1C[C@]1(NC(=O)[C@@H]1C[C@@H](Oc2ncc(OC)c3ccc(Cl)cc23)CN1C(=O)[C@@H](Nc1nc(-c2ccccc2OC)cs1)C(C)(C)C)C(=O)NS(=O)(=O)C1CC1 [Example 33] | – | – | 9 | 6.84 |
| C=C[C@@H]1C[C@]1(NC(=O)[C@@H]1C[C@@H](Oc2ncc(OC)c3ccc(Cl)cc23)CN1C(=O)[C@@H](Nc1nc(-c2ccc(C)cc2C)cs1)C(C)(C)C)C(=O)NS(=O)(=O)C1CC1 [Example 34] | 1 to 20 | 1 to 50 | – | – |
| C=C[C@@H]1C[C@]1(NC(=O)[C@@H]1C[C@@H](Oc2ncc(OC)c3ccc(Cl)cc23)CN1C(=O)[C@@H](Nc1nc(-c2cccc(OC)c2)cs1)C(C)(C)C)C(=O)NS(=O)(=O)C1CC1 [Example 35] | 1 to 20 | 1 to 50 | – | – |
| C=C[C@@H]1C[C@]1(NC(=O)[C@@H]1C[C@@H](Oc2ncc(OC)c3ccc(Cl)cc23)CN1C(=O)[C@@H](Nc1nc(-c2ccc3c(c2)OCCO3)cs1)C(C)(C)C)C(=O)NS(=O)(=O)C1CC1 [Example 36] | 1 to 20 | 1 to 50 | – | – |
| C=C[C@@H]1C[C@]1(NC(=O)[C@@H]1C[C@@H](Oc2ncc(OC)c3ccc(Cl)cc23)CN1C(=O)[C@@H](Nc1nc(-c2ccc(Cl)cc2Cl)cs1)C(C)(C)C)C(=O)NS(=O)(=O)C1CC1 [Example 37] | 20 to 200 | 1 to 50 | – | – |
| C=C[C@@H]1C[C@]1(NC(=O)[C@@H]1C[C@@H](Oc2ncc(OC)c3ccc(Cl)cc23)CN1C(=O)[C@@H](Nc1nc(-c2ccc(Cl)cc2)cs1)C(C)(C)C)C(=O)NS(=O)(=O)C1CC1 [Example 38] | 1 to 20 | 1 to 50 | – | – |
| C=C[C@@H]1C[C@]1(NC(=O)[C@@H]1C[C@@H](Oc2ncc(OC)c3ccc(Cl)cc23)CN1C(=O)[C@@H](Nc1nc(-c2ccccc2F)cs1)C(C)(C)C)C(=O)NS(=O)(=O)C1CC1 [Example 39] | 1 to 20 | 1 to 50 | – | – |
| C=C[C@@H]1C[C@]1(NC(=O)[C@@H]1C[C@@H](Oc2ncc(OC)c3ccc(Cl)cc23)CN1C(=O)[C@@H](Nc1nc(-c2ccc3c(c2)OCO3)cs1)C(C)(C)C)C(=O)NS(=O)(=O)C1CC1 [Example 40] | 1 to 20 | 1 to 50 | – | – |
| C=C[C@@H]1C[C@]1(NC(=O)[C@@H]1C[C@@H](Oc2ncc(OC)c3ccc(Cl)cc23)CN1C(=O)[C@@H](Nc1nc(-c2ccc(N3CCOCC3)cc2)cs1)C(C)(C)C)C(=O)NS(=O)(=O)C1CC1 [Example 41] | 1 to 20 | 1 to 50 | – | – |
| C=C[C@@H]1C[C@]1(NC(=O)[C@@H]1CC(Oc2ncc(OC)c3ccc(Cl)cc23)CN1C(=O)[C@@H](Nc1nc(-c2nc3ccccc3n2C)cs1)C(C)(C)C)C(=O)NS(=O)(=O)C1CC1 (some centres unmarked) [Example 42] | 1 to 20 | 1 to 50 | – | – |
| C=C[C@@H]1C[C@]1(NC(=O)[C@@H]1C[C@@H](Oc2ncc(OC)c3ccc(Cl)cc23)CN1C(=O)[C@@H](Nc1nc(-c2cccc(F)c2)cs1)C(C)(C)C)C(=O)NS(=O)(=O)C1CC1 [Example 43] | 1 to 20 | 1 to 50 | – | – |
| C=C[C@@H]1C[C@]1(NC(=O)[C@@H]1C[C@@H](Oc2ncc(OC)c3ccc(Cl)cc23)CN1C(=O)[C@@H](Nc1nc(-c2ccc(N(CC)CC)cc2)cs1)C(C)(C)C)C(=O)NS(=O)(=O)C1CC1 [Example 44] | 1 to 20 | 1 to 50 | – | – |
| C=C[C@@H]1C[C@]1(NC(=O)[C@@H]1C[C@@H](Oc2ncc(OC)c3ccc(Cl)cc23)CN1C(=O)[C@@H](Nc1nc(-c2ccccc2)c(-c2ccccc2)s1)C(C)(C)C)C(=O)NS(=O)(=O)C1CC1 [Example 45] | 1 to 20 | 1 to 50 | – | – |
| C=C[C@@H]1C[C@]1(NC(=O)[C@@H]1C[C@@H](Oc2ncc(OC)c3ccc(Cl)cc23)CN1C(=O)[C@@H](Nc1nc(-c2ccc(C(=O)O)cc2)cs1)C(C)(C)C)C(=O)NS(=O)(=O)C1CC1 [Example 46] | 1 to 20 | 1 to 50 | – | – |
| C=C[C@@H]1C[C@]1(NC(=O)[C@@H]1C[C@@H](Oc2ncc(OC)c3ccc(Cl)cc23)CN1C(=O)[C@@H](Nc1nc(-c2c(F)c(F)c(F)c(F)c2F)cs1)C(C)(C)C)C(=O)NS(=O)(=O)C1CC1 [Example 47] | 1 to 20 | 1 to 50 | – | – |
| C=C[C@@H]1C[C@]1(NC(=O)[C@@H]1C[C@@H](Oc2ncc(OC)c3ccc(Cl)cc23)CN1C(=O)[C@@H](Nc1nc(-c2cccc(Cl)c2)cs1)C(C)(C)C)C(=O)NS(=O)(=O)C1CC1 [Example 48] | 1 to 20 | 1 to 50 | – | – |
| C=C[C@@H]1C[C@]1(NC(=O)[C@@H]1C[C@@H](Oc2ncc(OC)c3ccc(Cl)cc23)CN1C(=O)[C@@H](Nc1nc(-c2ccccc2Cl)cs1)C(C)(C)C)C(=O)NS(=O)(=O)C1CC1 [Example 49] | 1 to 20 | 1 to 50 | – | – |
